{"source": "patent US7652029B2", "about": "“Therapeutic compound and treatments” (priority 2004, dated 2010)", "key": {"[1]": {"tested_on": "K-562", "test": "NCI multiple cell line test (SRB)", "assay_type": "cell-based, human", "details": "K-562 (Leukemia), 48 h"}, "[2]": {"tested_on": "MOLT-4", "test": "NCI multiple cell line test (SRB)", "assay_type": "cell-based, human", "details": "MOLT-4 (Leukemia), 48 h"}, "[3]": {"tested_on": "RPMI-8226", "test": "NCI multiple cell line test (SRB)", "assay_type": "cell-based, human", "details": "RPMI-8226 (Leukemia), 48 h"}, "[4]": {"tested_on": "NCI-H23", "test": "NCI multiple cell line test (SRB)", "assay_type": "cell-based, human", "details": "NCI-H23 (Non-Small Cell Lung Cancer), 48 h"}, "[5]": {"tested_on": "NCI-H460", "test": "NCI multiple cell line test (SRB)", "assay_type": "cell-based, human"}, "[6]": {"tested_on": "COLO 205", "test": "NCI multiple cell line test (SRB)", "assay_type": "cell-based, human", "details": "COLO 205 (Colon Cancer), 48 h"}, "[7]": {"tested_on": "HT29", "test": "NCI multiple cell line test (SRB)", "assay_type": "cell-based, human", "details": "HT29 (Colon Cancer), 48 h"}, "[8]": {"tested_on": "SW-620", "test": "NCI multiple cell line test (SRB)", "assay_type": "cell-based, human", "details": "SW-620 (Colon Cancer), 48 h"}, "[9]": {"tested_on": "SF-295", "test": "NCI multiple cell line test (SRB)", "assay_type": "cell-based, human", "details": "SF-295 (CNS Cancer), 48 h"}, "[10]": {"tested_on": "LOX IMVI", "test": "NCI multiple cell line test (SRB)", "assay_type": "cell-based, human", "details": "LOX IMVI (Melanoma), 48 h"}, "[11]": {"tested_on": "SK-MEL-2", "test": "NCI multiple cell line test (SRB)", "assay_type": "cell-based, human", "details": "SK-MEL-2 (Melanoma), 48 h"}, "[12]": {"tested_on": "786-0", "test": "NCI multiple cell line test (SRB)", "assay_type": "cell-based, human", "details": "786-0 (Renal Cancer), 48 h"}, "[13]": {"tested_on": "ACHN", "test": "NCI multiple cell line test (SRB)", "assay_type": "cell-based, human", "details": "ACHN (Renal Cancer), 48 h"}, "[14]": {"tested_on": "SN12C", "test": "NCI multiple cell line test (SRB)", "assay_type": "cell-based, human", "details": "SN12C (Renal Cancer), 48 h"}, "[15]": {"tested_on": "UO-31", "test": "NCI multiple cell line test (SRB)", "assay_type": "cell-based, human", "details": "UO-31 (Renal Cancer), 48 h"}, "[16]": {"tested_on": "MCF7", "test": "NCI multiple cell line test (SRB)", "assay_type": "cell-based, human"}, "[17]": {"tested_on": "MDA-MB-231/ATCC", "test": "NCI multiple cell line test (SRB)", "assay_type": "cell-based, human", "details": "MDA-MB-231/ATCC (Breast Cancer), 48 h"}, "[18]": {"tested_on": "HS 578T", "test": "NCI multiple cell line test (SRB)", "assay_type": "cell-based, human", "details": "HS 578T (Breast Cancer), 48 h"}, "[19]": {"tested_on": "MDA-MB-435", "test": "NCI multiple cell line test (SRB)", "assay_type": "cell-based, human", "details": "MDA-MB-435 (Breast Cancer), 48 h"}, "[20]": {"tested_on": "T-47D", "test": "NCI multiple cell line test (SRB)", "assay_type": "cell-based, human", "details": "T-47D (Breast Cancer), 48 h"}, "[21]": {"tested_on": "H226 cells", "test": "Growth response, MTT dye conversion assay", "assay_type": "cell-based, human"}, "[22]": {"tested_on": "MCF-7 cells", "test": "Growth response, MTT dye conversion assay", "assay_type": "cell-based, human", "details": "FIG. 7; 48 hours; compared with cisplatin"}, "[23]": {"tested_on": "SCK cells", "test": "Growth response, MTT dye conversion assay", "assay_type": "cell-based, murine", "details": "FIG. 8; 48 hours; compared with cisplatin"}, "[24]": {"tested_on": "A549 cells", "test": "Growth response, MTT dye conversion assay", "assay_type": "cell-based, human", "details": "low doses (FIG. 13 as printed)"}, "[25]": {"tested_on": "ACHN cells", "test": "Growth response, MTT dye conversion assay", "assay_type": "cell-based, human", "details": "low doses (FIG. 14 as printed)"}, "[26]": {"details": "Homo sapiens, read-out: −log10GI50 (converted)"}, "[27]": {"details": "NCI-H460 (Non-Small Cell Lung Cancer), 48 h"}}, "data": [{"smiles": "COC(=O)C1=C(C(=O)OC)SC2(S1)C(C(=O)OC)=C(C(=O)OC)SC1=C2c2cccc(OC)c2N(C(=O)CN2C(=O)CCC2=O)C1(C)C", "note": "[MT477]", "values": [{"measurement": "IC50", "setting": "[1]; Homo sapiens, K562, read-out: −log10GI50 (converted)", "result": 1620, "unit": "nM"}, {"measurement": "−log10LC50", "setting": "[1]", "result": "* (effect not reached at maximum dose of 0.05 millimolar)"}, {"measurement": "−log10TGI", "setting": "[1]", "result": 4.99, "unit": "molar"}, {"measurement": "IC50", "setting": "[2]; [26]", "result": 1020, "unit": "nM"}, {"measurement": "−log10LC50", "setting": "[2]", "result": 4.68, "unit": "molar"}, {"measurement": "−log10TGI", "setting": "[2]", "result": 5.64, "unit": "molar"}, {"measurement": "IC50", "setting": "[3]; [26]", "result": 7590, "unit": "nM"}, {"measurement": "−log10LC50", "setting": "[3]", "result": 4.42, "unit": "molar"}, {"measurement": "−log10TGI", "setting": "[3]", "result": 4.77, "unit": "molar"}, {"measurement": "IC50", "setting": "[4]; [26]", "result": 955, "unit": "nM"}, {"measurement": "−log10LC50", "setting": "[4]", "result": 5.42, "unit": "molar"}, {"measurement": "−log10TGI", "setting": "[4]", "result": 5.72, "unit": "molar"}, {"measurement": "IC50", "setting": "[5]; Homo sapiens, NCI-H460 (Non-Small Cell Lung Cancer), 48 h, read-out: −log10GI50 (converted)", "result": 1740, "unit": "nM"}, {"measurement": "GI50", "setting": "[5]; Homo sapiens, NCI-H460, MT477 ACTUAL", "result": 1740, "unit": "nM"}, {"measurement": "Activity against lung cancer NCI-H460", "setting": "[5]; MT477 ACTUAL", "result": "Yes"}, {"measurement": "−log10LC50", "setting": "[5]; [27]", "result": "* (effect not reached at maximum dose of 0.05 millimolar)"}, {"measurement": "−log10TGI", "setting": "[5]; [27]", "result": "* (effect not reached at maximum dose of 0.05 millimolar)"}, {"measurement": "−log10LC50", "setting": "[6]", "result": "* (effect not reached at maximum dose of 0.05 millimolar)"}, {"measurement": "−log10TGI", "setting": "[6]", "result": 5.19, "unit": "molar"}, {"measurement": "IC50", "setting": "[6]; [26]", "result": 1660, "unit": "nM"}, {"measurement": "−log10LC50", "setting": "[7]", "result": "* (effect not reached at maximum dose of 0.05 millimolar)"}, {"measurement": "−log10TGI", "setting": "[7]", "result": 4.65, "unit": "molar"}, {"measurement": "IC50", "setting": "[7]; Homo sapiens, HT-29, read-out: −log10GI50 (converted)", "result": 1700, "unit": "nM"}, {"measurement": "IC50", "setting": "[8]; [26]", "result": 1660, "unit": "nM"}, {"measurement": "−log10LC50", "setting": "[8]", "result": "* (effect not reached at maximum dose of 0.05 millimolar)"}, {"measurement": "−log10TGI", "setting": "[8]", "result": "* (effect not reached at maximum dose of 0.05 millimolar)"}, {"measurement": "IC50", "setting": "[9]; [26]", "result": 9550, "unit": "nM"}, {"measurement": "−log10LC50", "setting": "[9]", "result": "* (effect not reached at maximum dose of 0.05 millimolar)"}, {"measurement": "−log10TGI", "setting": "[9]", "result": 4.56, "unit": "molar"}, {"measurement": "IC50", "setting": "[10]; [26]", "result": 851, "unit": "nM"}, {"measurement": "−log10LC50", "setting": "[10]", "result": 5.52, "unit": "molar"}, {"measurement": "−log10TGI", "setting": "[10]", "result": 5.79, "unit": "molar"}, {"measurement": "IC50", "setting": "[11]; [26]", "result": 4680, "unit": "nM"}, {"measurement": "−log10LC50", "setting": "[11]", "result": "* (effect not reached at maximum dose of 0.05 millimolar)"}, {"measurement": "−log10TGI", "setting": "[11]", "result": 4.41, "unit": "molar"}, {"measurement": "−log10LC50", "setting": "[12]", "result": 5.47, "unit": "molar"}, {"measurement": "−log10TGI", "setting": "[12]", "result": 5.76, "unit": "molar"}, {"measurement": "IC50", "setting": "[12]; [26]", "result": 871, "unit": "nM"}, {"measurement": "−log10LC50", "setting": "[13]", "result": 5.5, "unit": "molar"}, {"measurement": "−log10TGI", "setting": "[13]", "result": 5.77, "unit": "molar"}, {"measurement": "IC50", "setting": "[13]; [26]", "result": 891, "unit": "nM"}, {"measurement": "IC50", "setting": "[14]; [26]", "result": 5890, "unit": "nM"}, {"measurement": "−log10LC50", "setting": "[14]", "result": 4.6, "unit": "molar"}, {"measurement": "−log10TGI", "setting": "[14]", "result": 4.91, "unit": "molar"}, {"measurement": "IC50", "setting": "[15]; [26]", "result": 3390, "unit": "nM"}, {"measurement": "−log10LC50", "setting": "[15]", "result": "* (effect not reached at maximum dose of 0.05 millimolar)"}, {"measurement": "−log10TGI", "setting": "[15]", "result": 4.81, "unit": "molar"}, {"measurement": "IC50", "setting": "[16]; Homo sapiens, MCF7 (Breast Cancer), 48 h, read-out: −log10GI50 (converted)", "result": 1780, "unit": "nM"}, {"measurement": "GI50", "setting": "[16]; Homo sapiens, NCI-MCF7, MT477 ACTUAL", "result": 1580, "unit": "nM"}, {"measurement": "−log10LC50", "setting": "[16]; MCF7 (Breast Cancer), 48 h", "result": "* (effect not reached at maximum dose of 0.05 millimolar)"}, {"measurement": "−log10TGI", "setting": "[16]; MCF7 (Breast Cancer), 48 h", "result": "* (effect not reached at maximum dose of 0.05 millimolar)"}, {"measurement": "Activity against breast cancer NCI-MCF7", "setting": "[16]; MT477 ACTUAL", "result": "Yes"}, {"measurement": "IC50", "setting": "[17]; [26]", "result": 851, "unit": "nM"}, {"measurement": "−log10LC50", "setting": "[17]", "result": 5.46, "unit": "molar"}, {"measurement": "−log10TGI", "setting": "[17]", "result": 5.76, "unit": "molar"}, {"measurement": "−log10LC50", "setting": "[18]", "result": "* (effect not reached at maximum dose of 0.05 millimolar)"}, {"measurement": "−log10TGI", "setting": "[18]", "result": 4.68, "unit": "molar"}, {"measurement": "IC50", "setting": "[18]; [26]", "result": 6610, "unit": "nM"}, {"measurement": "IC50", "setting": "[19]; [26]", "result": 1700, "unit": "nM"}, {"measurement": "−log10LC50", "setting": "[19]", "result": 4.58, "unit": "molar"}, {"measurement": "−log10TGI", "setting": "[19]", "result": 5.27, "unit": "molar"}, {"measurement": "IC50", "setting": "[20]; Homo sapiens, T47D, read-out: −log10GI50 (converted)", "result": 1510, "unit": "nM"}, {"measurement": "−log10LC50", "setting": "[20]", "result": "* (effect not reached at maximum dose of 0.05 millimolar)"}, {"measurement": "−log10TGI", "setting": "[20]", "result": 5.40, "unit": "molar"}, {"measurement": "growth response", "setting": "[21]; FIG. 5, 48 hours, compared with cisplatin", "result": "more effective than cisplatin"}, {"measurement": "growth response at low concentrations", "setting": "[21]; H226 cells, low doses (FIG. 11 as printed)", "result": "effective even at very low doses, including micromolar dosages"}, {"measurement": "growth response", "setting": "[22]", "result": "more effective than cisplatin"}, {"measurement": "growth response", "setting": "[23]", "result": "more effective than cisplatin"}, {"measurement": "growth response at low concentrations", "setting": "[24]", "result": "effective even at very low doses, including micromolar dosages"}, {"measurement": "growth response at low concentrations", "setting": "[25]", "result": "effective even at very low doses, including micromolar dosages"}]}]}
